Test results reported in patent US20230139922A1, “BACITRACIN-ALGINATE OLIGOMER CONJUGATES” (AlgiPharma AS, priority 2016, published 2023).
Values after ≈ are worked out from the molar mass of the structure shown. Read-outs that look alike come from different tables or passages of the source. Where a SMILES comes first, the peptide text is derived from it. Bridges are numbered along the chain shown (N, C = ends). [ ]: non-standard residue; d: D form. The star is where a group is joined. Ileψ(thiazoline)Cys = CC[C@H](C)[C@H](N)C1=N[C@H](C(=O)*)CS1; dOrn = NCCC[C@@H](N)C(=O)O

Columns and labels:
Type in all cases: cell-based
[1] = test system: Gram negative species tested (Pseudomonas aeruginosa, Klebsiella pneumonia, Escherichia coli and Acinetobacter baumannii); assay: Antimicrobial activity (MIC) against Gram negative species; settings: summary in words
Method: (§1) The strains used for susceptibility testing include both culture collection strains and clinical isolates are recited below. Their known relevant genotypes and origin have been described by Khan et al. supra.
(§2) The MICs of alginate oligomers, bacitracin and alginate oligomer conjugates thereof were determined for isolates V2, V3, VS, V19, E68 and E75 using the broth microdilution method in accordance with standard guidelines (CLSI 2012). Test organisms were suspended in Mueller Hinton cation adjusted (MH) broth (100 μL, 1-5×10^4 CFU/mL) and incubated in 96-well microtitre plates in serial two-fold dilutions of the test compounds. The MIC was defined as the lowest concentration of test compound that produced no visible growth after 16-20 hours.

[2] = test system: Staphylococcus aureus (Gram positive); assay: Antimicrobial activity (MIC) against Gram positive species; settings: summary in words
Method: as §1, §2

V33 = assay: MIC, broth microdilution (CLSI 2012), isolate V33; settings: Batch 1; MH broth, 16-20 hours
Klebsiella pneumoniae = test system: Klebsiella pneumoniae
Method: as §1, §2

[3] = test system: Pseudomonas aeruginosa (301), MDR-PSA isolate
Method: as §1, §2

Acinetobacter baumannii = test system: Acinetobacter baumannii
Method: as §1, §2

Escherichia coli = test system: Escherichia coli
Method: as §1, §2

CC[C@H](C)[C@H](N)C1=N[C@H](C(=O)N[C@@H](CC(C)C)C(=O)N[C@H](CCC(=O)O)C(=O)N[C@H](C(=O)N[C@H]2CCCCNC(=O)[C@H](CC(N)=O)NC(=O)[C@@H](CC(=O)O)NC(=O)[C@H](Cc3cnc[nH]3)NC(=O)[C@@H](Cc3ccccc3)NC(=O)[C@H]([C@@H](C)CC)NC(=O)[C@@H](CCCN)NC2=O)[C@@H](C)CC)CS1 [Bacitracin, bacitracin] ({Ileψ(thiazoline)Cys}-L[dE]IK[dOrn]I[dF]H[dD]N; lactam 4-C)
antimicrobial activity against the Gram negative species tested [1]: but not the Gram negative species tested | antimicrobial activity against Staphylococcus aureus (Gram positive) [2]: high antimicrobial activity | MIC V33 (V33): >128 µg/mL | MIC V3 (Klebsiella pneumoniae): >8192 µg/mL | MIC V3 (Klebsiella pneumoniae; Batch 1, MH broth, 16-20 hours): >128 µg/mL | MIC V2 ([3]; 301), MDR-PSA isolate): >8192 µg/mL | MIC V2 ([3]; Batch 1, MH broth, 16-20 hours): >128 µg/mL | MIC V19 (Acinetobacter baumannii): 640 µg/mL (≈ 450 µM) | MIC V19 (Acinetobacter baumannii; Batch 1, MH broth, 16-20 hours): >128 µg/mL | MIC V5 (Escherichia coli): 640 µg/mL (≈ 450 µM) | MIC V5 (Escherichia coli; Batch 1, MH broth, 16-20 hours): >128 µg/mL
